Legend:
RsgA = RsgA (Staphylococcus aureus, UniProt P67682); test: DRaCALA binding of 32P-labeled nucleotides to 6×His-tagged RsgA; conditions: for Bmax, RsgA: mean ± SEM, Bmax values indicate the fraction bound
Method: (§1) The RA-GTPases RsgA, Era, RbgA, and HflX can bind to the guanosine nucleotides GTP, GDP, ppGpp, and pppGpp. Our previous work observed higher binding affinities for ppGpp over GTP, pointing toward a difference in binding between 5′ di- or triphosphate nucleotides ([27]). […] Furthermore, these previous experiments were performed using recombinant proteins fused to large MBP tags, which could impact binding affinity determination. To examine the nucleotide binding affinities of these RA-GTPases for GDP in comparison to ppGpp, pppGpp, and GTP, and in the absence of a large tag, we used a differential radial capillary action of ligand assay (DRaCALA) with recombinant RsgA, RbgA, Era, and HflX fused to a smaller 6× His tag (Fig. 1B; see also Fig. S2A to C in the supplemental material) ([36]). In each case, the affinities of 5′ diphosphate-containing GDP and ppGpp were similar in the low μM range and were 2- to 6-fold higher than the affinities of either GTP or pppGpp (Table 1).
(§2) Supplementary file : FIG S2 Examination of the binding of GDP, ppGpp, GTP, and pppGpp to RA-GTPases by DRaCALA. (A to C) Determination of binding affinities and Kd values for ^32P-labeled nucleotides to purified recombinant 6×His-tagged RsgA (A), Era (B), and HflX (C). Kd values were determined from the binding curves as previously described ([36]). (D to F) DRaCALA binding assay of recombinant RsgA (D), Era (E), and HflX (F) binding to ^32P-labeled GTP, ppGpp, and pppGpp in the presence or absence of 100 μM cold competitors (GTP, GDP, ppGpp, pppGpp, and ATP). All experiments were carried out in triplicate, with error bars representing standard deviations. Download FIG S2, TIF file, 0.9 MB.
(§3) The synthesis of (p)ppGpp and differential radial capillary action of ligand assay (DRaCALA) binding and competition assays were performed as described previously ([27]), using recombinant, 6×His-tagged protein at the concentrations specified in the figure legends.

Era = Era (Staphylococcus aureus, UniProt Q2FGF6); test: DRaCALA binding of 32P-labeled nucleotides to 6×His-tagged Era; conditions: for Bmax, Era: mean ± SEM, Bmax values indicate the fraction bound
Chain of Era (Q2FGF6 whole entry): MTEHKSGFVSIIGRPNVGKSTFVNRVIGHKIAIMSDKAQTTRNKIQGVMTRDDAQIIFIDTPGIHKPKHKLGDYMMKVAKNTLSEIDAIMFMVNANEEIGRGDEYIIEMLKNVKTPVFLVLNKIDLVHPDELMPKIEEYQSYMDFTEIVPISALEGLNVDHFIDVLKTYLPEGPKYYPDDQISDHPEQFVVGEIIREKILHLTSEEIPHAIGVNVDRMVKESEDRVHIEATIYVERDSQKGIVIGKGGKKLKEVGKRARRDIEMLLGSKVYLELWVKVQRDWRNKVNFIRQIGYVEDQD
Method: as §1, §2, §3

RbgA = RbgA (Staphylococcus aureus, UniProt A0A0H2XK72); test: DRaCALA binding of 32P-labeled nucleotides to 6×His-tagged RbgA; conditions: for Bmax, RbgA: mean ± SEM, Bmax values indicate the fraction bound
Chain of RbgA (A0A0H2XK72 entry or part of it): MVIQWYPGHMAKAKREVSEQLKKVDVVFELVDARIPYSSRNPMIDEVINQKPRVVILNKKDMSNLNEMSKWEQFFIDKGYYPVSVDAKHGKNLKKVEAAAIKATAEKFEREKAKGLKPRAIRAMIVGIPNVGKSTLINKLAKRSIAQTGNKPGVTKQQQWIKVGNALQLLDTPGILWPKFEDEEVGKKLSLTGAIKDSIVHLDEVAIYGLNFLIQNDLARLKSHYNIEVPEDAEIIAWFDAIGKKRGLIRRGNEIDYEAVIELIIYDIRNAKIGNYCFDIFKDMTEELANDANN
Text: FIG 1 Nucleotide binding characteristics of RA-GTPases. (A) Schematic representation of the domain structure of Era, RsgA, RbgA, and HflX from S. aureus. The conserved GTPase domain (G domain) is colored in green, and accessory domains are shown. (B) Determination of binding affinities and Kd values for ^32P-labeled GTP, GDP, ppGpp, and pppGpp with purified recombinant 6×His-tagged RbgA using DRaCALA, as previously described ([36]). Each point is the mean average of at least three technical replicates, and error bars indicate standard deviations. (C) Binding assay (DRaCALA) of recombinant RbgA binding to ^32P-labeled GTP, ppGpp, and pppGpp in the presence of an excess of cold competitor (GTP, GDP, ppGpp, pppGpp, or ATP). All experiments were carried out in triplicate, with error bars representing standard deviations.
as §1, §3

[1] = tested on: HflX binding to 50S ribosomes; test: Stopped-flow fluorescence kinetics of HflX-Atto488 association to 50S subunits; parameters: species or system Staphylococcus aureus
Method: FIG 3 Stopped-flow kinetic parameters of RA-GTPase association to the ribosomal subunits. (A) Schematic representation of the experimental setup for stopped-flow analysis. Nucleotides (brown circles), 50S subunits (orange oval), and Atto488-labeled RA-GTPases (purple hexagon) are indicated. Arrows indicate the direction of syringe movement. Atto-488 was excited using a 470-nm LED, and fluorescence was detected through a 515-nm long-pass filter. (B and C) Fluorescent change upon mixing 0.2 μM RbgA-Atto488 (B) or HflX-Atto488 (C) with 0.2 μM 50S ribosomal subunits in the presence of 100 μM GTP, ppGpp, and pppGpp or in the apo state using the stopped-flow fluorescence apparatus. Fluorescently labeled protein was also mixed with buffer lacking 50S subunits as a mixing control. Fluorescence of the reaction was tracked using exponential sampling for 10 s, and each curve represents the mean average of at least five technical replicates. (D) kapp1 dependence on 50S concentration for HflX complexed with GTP (green), ppGpp (pink), and pppGpp (black). (E) Same as for panel D for the kapp2 dependence. (F and G) Sum and product analyses of apparent rates during HflX association to the 50S subunit. HflX-Atto488 (0.05 μM) was mixed with increasing titrations of 50S ribosomal subunits over the fluorescently labeled protein in the presence of 20 μM GTP or ppGpp. The resultant traces (see Fig. S4) were analyzed by nonlinear regression using two exponential terms. The sum (F) and product (G) of apparent rates (kapp1 [D] and kapp2 [E]) were plotted as a function of the total concentration of the 50S subunits and HflX protein to determine the microscopic constants k1, k-1, k2, and k-2 (Table 2) and the resulting dissociation constant (Kd) (see Materials and Methods). Error bars represent the standard deviations of the apparent rates of four or more individual traces (D and E) or the standard errors of the two-step analysis (F and G).
Next, we used a constant concentration of protein in the presence of 200-fold excess of each nucleotide and titrated it with increasing concentrations of ribosomal subunits (see Fig. S4). […]
For initial controls, 0.2 μM Atto-488-labeled proteins were rapidly mixed with 0.2 μM E. coli 50S ribosomal subunits (purified as described elsewhere) in TAKM7 buffer (25 mM Tris-HCl [pH 7.4], 70 mM ammonium acetate, 30 mM KCl, 7 mM MgCl2) using an SX20 stopped-flow apparatus (Applied Photophysics) in the presence or absence of GTP, ppGpp, and pppGpp. […] Atto-488 was excited using a 470-nm LED and fluorescence was detected through a 515-nm long-pass filter. Reactions were monitored for 10 s, with 1,000 total data points per reaction. Each condition was subject to at least five technical repeats, with curves representing the mean average fluorescence of the technical repeats. […]

HflX = HflX (Staphylococcus aureus, UniProt Q2FYY9); test: DRaCALA binding of 32P-labeled nucleotides to 6×His-tagged HflX; conditions: for Bmax, HflX: mean ± SEM, Bmax values indicate the fraction bound
Chain of HflX (Q2FYY9 entry or part of it): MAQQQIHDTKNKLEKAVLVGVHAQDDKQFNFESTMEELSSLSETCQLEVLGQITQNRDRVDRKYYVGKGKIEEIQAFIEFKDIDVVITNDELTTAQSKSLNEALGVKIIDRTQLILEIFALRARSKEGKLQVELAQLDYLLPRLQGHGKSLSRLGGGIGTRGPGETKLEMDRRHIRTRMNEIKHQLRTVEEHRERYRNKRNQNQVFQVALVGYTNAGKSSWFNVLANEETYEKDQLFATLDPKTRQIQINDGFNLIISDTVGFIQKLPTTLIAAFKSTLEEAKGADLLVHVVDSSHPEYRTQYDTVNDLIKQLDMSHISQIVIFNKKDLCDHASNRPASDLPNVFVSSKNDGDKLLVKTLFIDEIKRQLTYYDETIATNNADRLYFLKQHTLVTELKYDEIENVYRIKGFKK
Method: as §1, §2, §3

[2] = biological target: Era association to the 30S ribosomal subunit (Staphylococcus aureus, UniProt Q2FGF6); test: In vitro ribosome association assay (sucrose gradient, α-His Western immunoblot), Era; type: binding; conditions: 40 μM nucleotide; compared to apo, GTP, or GMPPNP-bound states
Chain of Era association to the 30S ribosomal subunit (Q2FGF6 whole entry): as the sequence (Q2FGF6 whole entry) above
Text: (§4) It is well characterized that rRNA transcription decreases during the stringent response ([39]). In addition, the GTPase activity of ribosome assembly cofactors is inhibited by (p)ppGpp, both of which contribute to a reduction in mature ribosomes within the cell ([27]). To examine mechanistically how (p)ppGpp-GTPase interactions affect the ability of RA-GTPases to associate with ribosomal subunits, we examined the association of each GTPase to either the 30S or 50S ribosomal subunit in the presence of GDP, GTP, ppGpp, and pppGpp, as well as GMPPNP, a nonhydrolyzable analogue of GTP. The production and isolation of immature subunits, which can comprise several different immature states, introduces a large degree of heterogeneity, and so here we, and others, use homogenous mature particles as a system to examine the binding event, rather than the role of GTPase activity in downstream maturation ([11], [12], [29], [40], [41]). His-tagged GTPases were preincubated with highly pure, salt-washed 70S S. aureus ribosomes in a low-magnesium buffer to encourage ribosomal subunit dissociation, and the amount of each GTPase associated with each of the subunits was quantified by Western immunoblotting with anti-His antibodies after sucrose gradient separation. […]
(§5) FIG 2 (p)ppGpp and GDP binding reduces RA-GTPase association to the ribosome. […] After subunit separation and precipitation, bound proteins were detected in the 30S fraction using HRP-conjugated α-His antibodies. […] Bound proteins were detected in the 50S fraction using HRP-conjugated α-His antibodies. […]
(§6) A 500 nM concentration of recombinant 6×His-tagged RA-GTPase was incubated at room temperature for 5 min with 200 nM S. aureus 70S ribosomes in dissociation buffer (20 mM Tris [pH 7.5], 120 mM NH4Cl, 1.5 mM MgCl2, 2 mM β-mercaptoethanol) in the apo form and in the presence of 40 μM GTP, GMPPNP, GDP, ppGpp, or pppGpp. […] Gradients were fractionated by upward displacement of 250-μl aliquots, which were analyzed for RNA content at an absorbance of 260 nm. […]

[3] = tested on: RA-GTPases RsgA, RbgA, Era, and HflX; test: DRaCALA binding and competition assays across the four RA-GTPases; parameters: species or system Staphylococcus aureus; conditions: 100 μM cold competitor
Text: FIG 1 Nucleotide binding characteristics of RA-GTPases. (A) Schematic representation of the domain structure of Era, RsgA, RbgA, and HflX from S. aureus. The conserved GTPase domain (G domain) is colored in green, and accessory domains are shown. (B) Determination of binding affinities and Kd values for ^32P-labeled GTP, GDP, ppGpp, and pppGpp with purified recombinant 6×His-tagged RbgA using DRaCALA, as previously described ([36]). Each point is the mean average of at least three technical replicates, and error bars indicate standard deviations. (C) Binding assay (DRaCALA) of recombinant RbgA binding to ^32P-labeled GTP, ppGpp, and pppGpp in the presence of an excess of cold competitor (GTP, GDP, ppGpp, pppGpp, or ATP). All experiments were carried out in triplicate, with error bars representing standard deviations. […]
Supplementary file : FIG S2 Examination of the binding of GDP, ppGpp, GTP, and pppGpp to RA-GTPases by DRaCALA. […] Kd values were determined from the binding curves as previously described ([36]). […]
Structural data places (p)ppGpp within the GTP-binding site of the RA-GTPase RbgA ([6]), indicating a competitive mode of inhibition. […] Based on our measured affinities (Table 1), we speculate that both GDP and ppGpp will outcompete other nucleotides for occupancy of the binding site. […]

[4] = tested on: HflX association to the 30S and 50S ribosomal subunits; test: In vitro ribosome association assay (sucrose gradient, α-His Western immunoblot), HflX; type: binding, Staphylococcus aureus; conditions: 40 μM nucleotide; compared to apo, GTP, or GMPPNP-bound states
Text: as §4, §5, §6

Chain of RsgA (P67682 whole entry, the tested form may be a part): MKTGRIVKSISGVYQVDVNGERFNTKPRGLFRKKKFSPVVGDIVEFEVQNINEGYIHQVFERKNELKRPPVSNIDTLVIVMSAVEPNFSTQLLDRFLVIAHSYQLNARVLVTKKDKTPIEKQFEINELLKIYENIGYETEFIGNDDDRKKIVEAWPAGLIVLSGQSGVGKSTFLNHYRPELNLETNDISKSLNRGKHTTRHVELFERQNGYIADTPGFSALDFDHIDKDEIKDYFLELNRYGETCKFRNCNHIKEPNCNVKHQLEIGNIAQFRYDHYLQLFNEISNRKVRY

Row | Structure (SMILES) | Kd (RsgA) [µM] | Bmax, RsgA (RsgA) | Kd (Era) [µM] | Bmax, Era (Era) | Kd (RbgA) [µM] | Bmax, RbgA (RbgA) | kapp2 of HflX association to 50S ([1]; GTP: hyperbolic, plateau, ppGpp: independent of 50S concentration) [s⁻¹] | linear increase in kapp1 of HflX, GTP relative to ppGpp or pppGpp ([1]; dependence on 50S concentration) [fold] | Bmax, HflX (HflX) | reduction in ribosome binding of Era [2] [fold] | competition of cold unlabeled nucleotide with 32P-labeled GTP, ppGpp, pppGpp [3] | reduction in ribosome binding of HflX [4] [fold] | Kd (HflX) [µM]
1 | Nc1nc2c(ncn2[C@@H]2O[C@H](COP(=O)(O)OP(=O)(O)OP(=O)(O)O)[C@@H](O)[C@H]2O)c(=O)[nH]1 [GTP] | 3.6 ± 0.4 | 0.8 ± 0.0 | 11.5 ± 1.6 | 0.3 ± 0.0 | 18.5 ± 5.4 | 0.4 ± 0.0 | ~2 | 2 | 0.7 ± 0.3 |  |  |  | 
2 | Nc1nc2c(ncn2[C@@H]2O[C@H](COP(=O)(O)OP(=O)(O)O)[C@@H](O)[C@H]2O)c(=O)[nH]1 [GDP] | 1.8 ± 0.2 | 0.9 ± 0.0 | 4.9 ± 0.7 | 0.5 ± 0.0 | 6.1 ± 1.1 | 0.5 ± 0.0 |  |  | 0.7 ± 0.0 | 2 | competing more effectively | 2 | 4.9 ± 0.7

Reference: article PMC8579695, “The Stringent Response Inhibits 70S Ribosome Formation in Staphylococcus aureus by Impeding GTPase-Ribosome Interactions” (mBio, 2021)
